Measurements reported in publication PMC5511785 (Journal of pharmaceutical sciences, 2017).
Like-named read-outs stand apart in the source and are kept apart here.

What was measured:
GFP-OATP1B3 [1] = target: T1, GFP-OATP1B3 (Homo sapiens, UniProt Q9NPD5); assay: [3H]-E217βG accumulation in HEK293-GFP-OATP1B3 cells
T1 sequence (Q9NPD5 1-702): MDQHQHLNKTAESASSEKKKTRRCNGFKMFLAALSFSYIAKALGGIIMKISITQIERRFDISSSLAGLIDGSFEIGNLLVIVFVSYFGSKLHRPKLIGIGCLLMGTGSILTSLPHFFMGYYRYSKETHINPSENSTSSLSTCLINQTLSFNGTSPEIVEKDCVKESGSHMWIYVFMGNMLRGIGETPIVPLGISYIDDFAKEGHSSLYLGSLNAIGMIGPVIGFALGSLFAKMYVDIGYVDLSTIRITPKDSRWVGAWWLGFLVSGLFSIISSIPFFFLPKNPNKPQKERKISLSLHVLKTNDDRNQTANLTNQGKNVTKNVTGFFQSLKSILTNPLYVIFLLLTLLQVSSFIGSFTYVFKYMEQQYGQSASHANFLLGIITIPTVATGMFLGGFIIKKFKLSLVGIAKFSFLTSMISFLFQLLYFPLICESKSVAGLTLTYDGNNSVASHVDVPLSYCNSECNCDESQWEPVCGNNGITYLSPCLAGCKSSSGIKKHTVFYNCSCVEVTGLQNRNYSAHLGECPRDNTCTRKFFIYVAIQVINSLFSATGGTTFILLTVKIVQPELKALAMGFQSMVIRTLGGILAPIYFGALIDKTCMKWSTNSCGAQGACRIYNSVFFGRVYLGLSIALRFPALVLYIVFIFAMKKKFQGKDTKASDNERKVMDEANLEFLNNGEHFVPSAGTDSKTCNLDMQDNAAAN

GFP-OATP1B1 [2] = target: T2, GFP-OATP1B1 (Homo sapiens, UniProt Q9Y6L6); assay: [3H]-E217βG accumulation in HEK293-GFP-OATP1B1 cells
T2 sequence (Q9Y6L6 1-691): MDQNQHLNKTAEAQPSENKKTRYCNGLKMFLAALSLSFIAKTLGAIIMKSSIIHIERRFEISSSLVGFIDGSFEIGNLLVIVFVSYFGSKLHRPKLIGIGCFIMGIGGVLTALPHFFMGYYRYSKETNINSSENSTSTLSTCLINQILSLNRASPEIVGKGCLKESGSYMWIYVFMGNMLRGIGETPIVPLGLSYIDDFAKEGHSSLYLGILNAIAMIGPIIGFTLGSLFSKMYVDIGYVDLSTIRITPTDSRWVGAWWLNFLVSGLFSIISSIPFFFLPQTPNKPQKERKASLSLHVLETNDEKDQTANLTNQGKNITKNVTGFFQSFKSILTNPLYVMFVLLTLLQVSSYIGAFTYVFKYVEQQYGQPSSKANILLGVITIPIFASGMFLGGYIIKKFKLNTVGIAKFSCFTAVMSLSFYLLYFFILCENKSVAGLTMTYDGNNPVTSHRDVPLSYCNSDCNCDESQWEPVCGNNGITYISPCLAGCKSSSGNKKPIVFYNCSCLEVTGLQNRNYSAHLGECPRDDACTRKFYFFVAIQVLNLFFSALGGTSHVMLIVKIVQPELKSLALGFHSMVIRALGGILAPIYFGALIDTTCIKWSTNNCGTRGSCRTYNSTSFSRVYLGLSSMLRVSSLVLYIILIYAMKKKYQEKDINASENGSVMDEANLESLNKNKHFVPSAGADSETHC

OATP1B1 [3] = target: T3, OATP1B1 (Homo sapiens, UniProt Q9Y6L6)
T3 sequence (Q9Y6L6 1-691): T2 sequence (Q9Y6L6 1-691)

OATP1B3 [4] = target: T4, OATP1B3 (Homo sapiens, UniProt Q9NPD5)
T4 sequence (Q9NPD5 1-702): T1 sequence (Q9NPD5 1-702)

OATP1B1 [5] = assay: Immunoblot of total OATP1B1 protein in HEK293-OATP1B1 cells; format: cell-based, human; conditions: 10 μM, 1 h
OATP1B3 [6] = target: T4, OATP1B3; assay: cell-based; conditions: [3H]-E217βG 1 μM, 2 min, HEK293-OATP1B3
OATP1B3 [7] = assay: Immunoblot of total OATP1B3 protein in HEK293-OATP1B3 cells; format: cell-based, human; conditions: 10 μM, 1 h
[8] = Estimated maximum unbound inhibitor concentration at the inlet to the liver; set-up: species or system human; conditions: Supplemental Table S2
GFP-OATP1B1 [9] = format: cell-based, human
OATP1B1 [10] = conditions: 1–25 μM; cited from earlier work
OATP1B1 [11] = target: T3, OATP1B1; assay: cell-based; conditions: [3H]-E217βG 1 μM, 2 min, HEK293-OATP1B1
OATP1B1 [12] = target: T3, OATP1B1; assay: OATP1B1-mediated [3H]-pitavastatin accumulation; format: cell-based; conditions: 10 μM, 1 h pre-incubation
GFP-OATP1B3 [13] = format: cell-based, human
OATP1B1 [14] = target: T3, OATP1B1; assay: OATP1B1-mediated [3H]-E1S accumulation; format: cell-based; conditions: 1 μM, 30 min or 1 h
[15] = co-administration of dasatinib with simvastatin; cited from earlier work
[16] = cited from earlier work
[17] = system: HEK293-OATP1B1 and -1B3 cells; conditions: 1 h treatment; rifampicin up to 25 μM, dasatinib up to 20 μM
OATP1B1 [18] = conditions: co-incubation with 10 μM; cited from earlier work
[19] = cited from earlier work; remark: listed apart in the source
[20] = substrate kinetics, vehicle control pretreatment, mean ± SD, n=3
[21] = unlabeled E217βG 1–30 μM, 0.5 and 1 h
[22] = IC50, co-incubation, without pretreatment
[23] = IC50, pre+co-incubation (1 h pretreatment)
[24] = 20 μM, up to at least 1 h (data not shown)

C[C@]12CC[C@@H]3c4ccc(O)cc4CC[C@H]3[C@@H]1CC[C@@H]2O[C@@H]1O[C@H](C(=O)O)[C@@H](O)[C@H](O)[C@H]1O [E217βG, estradiol 17β-D-glucuronide]
[3H]-E217βG accumulation vs HEK293-Mock cells (GFP-OATP1B3 [1]; 1 μM, 2 min, HEK293-GFP-OATP1B3 (data not shown)): ~ 34 fold
[3H]-E217βG accumulation vs HEK293-Mock cells (GFP-OATP1B1 [2]; 1 μM, 2 min, HEK293-GFP-OATP1B1 (data not shown)): 390 fold
Vmax of E217βG transport mediated by OATP1B1 (OATP1B1 [3]; [20]): 55.2 ± 1.6 pmol/mg protein/min
Effect of pretreatment on OATP1B1-mediated transport of [3H]-E217βG (OATP1B1 [3]; [21]): only slightly decreases or has no effect
Vmax of E217βG transport mediated by OATP1B3 (OATP1B3 [4]; [20]): 15.8 ± 1.6 pmol/mg protein/min
Effect of pretreatment on OATP1B3-mediated transport of [3H]-E217βG (OATP1B3 [4]; [21]): only slightly decreases or has no effect

CO[C@H]1/C=C/O[C@@]2(C)Oc3c(C)c(O)c4c(O)c(c(/C=N/N5CCN(C)CC5)c(O)c4c3C2=O)NC(=O)/C(C)=C\C=C\[C@H](C)[C@H](O)[C@@H](C)[C@@H](O)[C@@H](C)[C@H](OC(C)=O)[C@@H]1C [Rifampicin]
Effect of pretreatment on [3H]-E217βG accumulation in HEK293-GFP-OATP1B3 (GFP-OATP1B3 [1]; 10 μM for 0.5 and 1 h): significantly decreased
Effect of pretreatment on [3H]-E217βG accumulation in HEK293-GFP-OATP1B1 (GFP-OATP1B1 [2]; 10 μM for 0.5 and 1 h): significantly decreased
Total protein level of OATP1B1 vs vehicle control (OATP1B1 [5]): similar
IC50 (OATP1B3 [6]; [22]): 0.26 ± 0.03 µM
IC50 (OATP1B3 [6]; [23]): 0.1 ± 0.01 µM
Total protein level of OATP1B3 vs vehicle control (OATP1B3 [7]): similar
Maximum possible unbound concentration at the inlet to the liver (Iu,in,max) [8]: 10.7 µM
Plasma membrane localization of GFP-OATP1B1 (GFP-OATP1B1 [9]; 10 μM, 1–61 min): primarily localized at the plasma membrane
Effect of pre-incubation on OATP1B1-mediated [3H]-E1S transport (OATP1B1 [10]): did not significantly affect
IC50 (OATP1B1 [11]; [22]): 0.74 ± 0.08 µM
IC50 (OATP1B1 [11]; [23]): 0.24 ± 0.03 µM
Effect of pre-incubation on OATP1B1-mediated [3H]-pitavastatin accumulation (OATP1B1 [12]): significantly decreased
Plasma membrane localization of GFP-OATP1B3 (GFP-OATP1B3 [13]; 10 μM, 1–61 min): primarily localized at the plasma membrane
Effect of pretreatment on OATP1B1-mediated [3H]-E1S transport (OATP1B1 [14]): did not affect
Effect of pre-incubation on OATP1B1-mediated [3H]-E217βG transport (OATP1B1 [3]; 1 – 25 μM for 0.5 h and 0.5 – 25 μM for 1 h, washed): significantly decreased
Change of Km of OATP1B1-mediated E217βG transport vs control (OATP1B1 [3]; pretreatment 10 μM, 1 h): ~ 1.5 fold
Decrease of Vmax of OATP1B1-mediated E217βG transport vs control (OATP1B1 [3]; pretreatment 10 μM, 1 h): ~ 3.5 fold

Cc1nc(Nc2ncc(C(=O)Nc3c(C)cccc3Cl)s2)cc(N2CCN(CCO)CC2)n1 [Dasatinib]
Total protein level of OATP1B1 vs vehicle control (OATP1B1 [5]): similar
Total protein level of OATP1B3 vs vehicle control (OATP1B3 [7]): similar
Plasma membrane localization of GFP-OATP1B1 (GFP-OATP1B1 [9]; [24]): did not cause an obvious change
IC50 (OATP1B1 [11]; [22]): 4.81 ± 1.7 µM
IC50 (OATP1B1 [11]; [23]): 2.33 ± 0.86 µM
Increase of AUC of simvastatin [15]: 20%
Increase of AUC of simvastatin acid [15]: 27%
ka ([16]; first-order absorption rate constant): 6 h⁻¹
fa ([16]; fraction available for absorption from dosage form, meta-analysis): 0.781
Vss ([16]; from allometric scaling): 4.2 L/kg
CLPO ([16]; observed value (CV% 106.5)): 449.4 L/h
CLR ([16]; observed value): 0.4 L/h
LDH cytotoxicity [17]: negligible toxicity
Plasma membrane localization of GFP-OATP1B3 (GFP-OATP1B3 [13]; [24]): did not cause an obvious change
Effect of pretreatment on OATP1B1-mediated [3H]-E217βG accumulation (OATP1B1 [3]; 5 - 20 μM for 0.5 and 1 h): significantly decreased
Decrease of OATP1B1-mediated [3H]-E217βG transport (OATP1B1 [18]): ~ 70%
pKa1 [19]: 6.8
pKa2 [19]: 10.8
Log PO:W ([19]; neutral species octanol:buffer partition coefficient): 1.8
